The record followed here is patent US4030886A, “Saturation analysis” (The Radiochemical Centre Limited, priority 1973, dated 1977).

Experiment [1] concerns the target T1, transcortin (charcoal treated rabbit serum) (Oryctolagus cuniculus, UniProt P23775).
T1 construct: charcoal treated rabbit serum; from tissue; host or cells: rabbit serum, charcoal treated
T1 sequence (P23775 1-383): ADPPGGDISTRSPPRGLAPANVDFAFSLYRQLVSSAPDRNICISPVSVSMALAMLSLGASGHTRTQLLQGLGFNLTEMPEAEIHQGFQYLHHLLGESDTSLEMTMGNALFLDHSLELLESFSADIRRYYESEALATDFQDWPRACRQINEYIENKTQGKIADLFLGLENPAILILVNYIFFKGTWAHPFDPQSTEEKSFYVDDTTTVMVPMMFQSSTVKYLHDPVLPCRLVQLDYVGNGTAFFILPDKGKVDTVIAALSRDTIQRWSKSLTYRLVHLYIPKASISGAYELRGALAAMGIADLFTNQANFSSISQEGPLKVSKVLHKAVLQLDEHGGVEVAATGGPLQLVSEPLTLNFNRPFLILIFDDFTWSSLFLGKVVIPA
Put plainly: Assay for cortisol using 2-methylseleno-1-dehydro-cortisol-21-acetate-Se75. The class given is binding. The settings on record: for Counts - BKG in 300 sec: 2.5 ng label. The method, then:
(§1) Into each glass assay tube was dispensed glycine buffer containing 1% sodium azide (pH 9.0; 5.5 ml), charcoal treated rabbit serum (50 μl), bis-2,2'-(21-acetoxy-1-dehydrocortisol)-diselenide-Se 75 (2.3 ng, sp. activity ca 6 Ci/m atom), and Sephadex G25 (1 g). […] The tubes were capped and rotated at room temperature for 1 hour using a blood cell suspension mixer. After this time an aliquot (1 ml) of the supernatant liquid was withdrawn from each tube and counted for 300 seconds using an NE8311 gamma counter.
Into each glass assay tube was dispensed 0.05M phosphate buffer containing sodium azide 1% (pH 7.4; 6 ml), charcoal treated rabbit serum (50 μl), 2-methylseleno-1-dehydrocortisol-21-acetate-Se75) (2.5 ng; sp. activity ca 3 Ci/m atom), and Sephadex G25 (1 g).
The assay procedure was identical with that described above.

In experiment [2] the test system is Antisera raised in rabbits to testosterone 3-carboxymethyloxime-BSA. Description: Radioimmunoassay for testosterone, antiserum dilution curve. The class given is binding, rabbit. To be noted: for % Bound: 25pg label per assay tube. The procedure:
Antisera were raised in rabbits to testosterone 3-carboxymethyloxime-BSA.
SE75 labelled 2-methylseleno-1-dehydrotestosterone (specific activity 15-20 Ci/mmol) was prepared by base catalysed hydrolysis of 2-methylseleno 1-dehydrotestosterone acetate which is described in our prior patent specification.
Antiserum dilution curves were set up in the usual way using antiserum and labelled testosterone as described above.
Typical figures for the antiserum dilution curves when 25pg labelled testosterone was used per assay tube are: […]

The test system of experiment [3] is antiserum raised to digoxin. Description: Dilution curve for 3-methylselenodigoxigenin. The class given is binding. The settings on record: for Mean Count: 200 μl supernatant. The method, then: An antiserum dilution curve for 3-methylselenodigoxigenin-Se 75 (specific activity 16 Ci/m mol) in buffered saline (0.15M NaCl, 0.05M KH2 PO4, 0.1% Na N3, and 0.1% BSA) was made up at a concentration of 0.0228 n mol/ml. Dilutions of antiserum raised to digoxin were prepared in assay buffer at 1/50, 1/100, 1/200, 1/400, 1/500, 1/800, 1/1000. Tubes were set up in duplicate for total activity, blanks, and antiserum dilutions as follows: total activity, 50 μl ^75 Se compound and 250 μl assay buffers; blanks, 50 μl ^75 Se compound and 150 μl assay buffer; antiserum dilutions, 50 μl ^75 Se compound, 100 μl buffer and 50 μl antiserum. The tubes were incubated for 30 minutes after which 100 μl of charcoal (0.65 g Norit OL in 50 ml assay buffer + 1 gram BSA) was added to each tube except the totals. After 10 minutes incubation the tubes were centrifuged and a 200 μl sample of the supernatant was counted.

In experiment [4] the target is T2, Transcortin from rabbit serum (Oryctolagus cuniculus, UniProt P23775).
T2 construct: Transcortin from rabbit serum; from tissue; host or cells: rabbit serum
T2 sequence (P23775 1-383): T1 sequence (P23775 1-383)
Description: CPB assay for cortisol using Se-75 labelled bis-2,2'-(1-dehydrocorticosterone)-diselenide. In kind it is binding. The method, then:
as §1
Se-75 labelled bis-2,2'-(1-dehydrocorticosterone)-diselenide was prepared by base hydrolysis of Se75-labelled bis-2,2'-(21-acetoxy-1-dehydrocorticosterone) diselenide which is described in our U.S. Ser. No. 426,695.
Using this radiolabelled material an assay for cortisol was set up as described in Example 1. Transcortin from rabbit serum was used as the source of binding protein and Sephadex G25 was used to separate protein free and bound material.
Typical results obtained using standard solutions of unlabelled cortisol to displace the labelled Δ^1 -corticosterone diselenide are: […]

For experiment [5], the target named is T1, transcortin (charcoal treated rabbit serum). Put plainly: Assay for cortisol using Se-75 labelled bis-2,2'-(21-acetoxy-1-dehydrocortisol)-diselenide (competitive protein binding, Sephadex G25 separation). To be noted: 2.3 ng label, 1 ml supernatant. The method, then:
as §1

Experiment [6] has the same target. Put plainly: Assay for cortisol - the use of β-mercaptoethanol in situ, tubes stored before use. In kind it is binding. The method, then: as §1
Bis-2,2'-(21-acetoxy-1-dehydrocortisol)-diselenide-Se75 (100ng) in ethanol (10 ul) was added with stirring to a solution of β-mercaptoethanol (20 μl) in 0.05M phosphate buffer (pH 7.4; 1 ml). The mixture was left at room temperature for 20 minutes and then was added to a solution of 0.05M phosphate buffer (pH 7.4; 480 ml) containing sodium azide (1%) and charcoal treated rabbit serum (2 ml). After thorough mixing this solution was dispensed (in 6 ml aliquots) into glass assay tubes each containing Sephadex G25 (1 g). The tubes were capped and stored at room temperature until required, when the assay was then carried out as described above.

Each structure is given as a SMILES string. Where “and” joins values, the source holds several entries; their conditions need not be identical. Equal entries are not always repeated.

`C[75Se]C1=C[C@@]2(C)C(=CC1=O)CC[C@@H]1[C@@H]2[C@@H](O)C[C@@]2(C)[C@H]1CC[C@]2(O)C(=O)COC(C)=O` [2-methylseleno-1-dehydrocortisol-21-acetate-Se75]: the “Counts - BKG in 300 sec” value was 37447 and 37551 in experiment [1] (cortisol standard 0 μg/100 ml); 36495 and 36981 in experiment [1] (cortisol standard 2 μg/100 ml); 35381 and 34565 in experiment [1] (cortisol standard 4 μg/100 ml); 31090 and 32353 in experiment [1] (cortisol standard 8 μg/100 ml); 28011 and 28180 in experiment [1] (cortisol standard 16 μg/100 ml); 24135 and 24340 in experiment [1] (cortisol standard 32 μg/100 ml). Also, in experiment [1] (cortisol standard 64 μg/100 ml), the “Counts - BKG in 300 sec” value is 21601 and 21777. Further, the “dose-response curve of the cortisol assay” value in experiment [1] (methylseleno- compared with the diseleno- derivative as label) is “steeper dose-response curve”.
Regarding `C[75Se]C1=C[C@@]2(C)C(=CC1=O)CC[C@H]1[C@@H]3CC[C@H](O)[C@@]3(C)CC[C@@H]12` [2-methylseleno-1-dehydrotestosterone], the “antiserum dilution curves compared with tritiated testosterone as label” value in experiment [2] is “identical to those obtained when tritiated testosterone was used as label”. The “% Bound” value is 85% in experiment [2] (antiserum dilution 1/10^2); 80% in experiment [2] (antiserum dilution 1/10^3); 45% in experiment [2] (antiserum dilution 1/10^4); 18% in experiment [2] (antiserum dilution 1/10^5); 13% in experiment [2] (antiserum dilution 1/10^6).
For `C[75Se]C1CC[C@@]2(C)[C@H](CC[C@@H]3[C@@H]2C[C@@H](O)[C@]2(C)[C@@H](C4=CC(=O)OC4)CC[C@]32O)C1` (some centres unmarked) [3-methylselenodigoxigenin-Se 75], the “% of Total Counts Bound” value in experiment [3] (antiserum 1/50 dilution) came to 97.0%; in experiment [3] (antiserum 1/100 dilution), 80.6%; in experiment [3] (antiserum 1/200 dilution) it was 44.3%; in experiment [3] (antiserum 1/400 dilution) it was 26.8%; in experiment [3] (antiserum 1/500 dilution), 21.8%; in experiment [3] (antiserum 1/800 dilution), 15.3%. Besides, in experiment [3] (antiserum 1/1000 dilution), the “% of Total Counts Bound” value is 12.2%. Moreover, the “Mean Count” value in experiment [3] (antiserum 1/50 dilution) was 20750; in experiment [3] (antiserum 1/100 dilution), 17224; in experiment [3] (antiserum 1/200 dilution), 9489; in experiment [3] (antiserum 1/400 dilution) it was 5744; in experiment [3] (antiserum 1/500 dilution), 4659; in experiment [3] (antiserum 1/800 dilution), 3277. Moreover, in experiment [3] (antiserum 1/1000 dilution), the “Mean Count” value came to 2602.
Take `C[C@]12C[C@H](O)[C@H]3[C@@H](CCC4=CC(=O)C([75Se][75Se]C5=C[C@@]6(C)C(=CC5=O)CC[C@@H]5[C@@H]6[C@@H](O)C[C@]6(C)[C@@H](C(=O)CO)CC[C@@H]56)=C[C@@]43C)[C@@H]1CC[C@@H]2C(=O)CO` [bis-2,2'-(1-dehydrocorticosterone)-diselenide]: the “Counts - Bkgd” value in experiment [4] (cortisol standard 2 μg/100 ml) is given as 24700; in experiment [4] (cortisol standard 4 μg/100 ml), 24100; in experiment [4] (cortisol standard 8 μg/100 ml) it was 22800; in experiment [4] (cortisol standard 16 μg/100 ml), 21800; in experiment [4] (cortisol standard 32 μg/100 ml) it was 21200; in experiment [4] (cortisol standard 64 μg/100 ml) it was 20700.
For the compound `CC(=O)OCC(=O)[C@@]1(O)CC[C@H]2[C@@H]3CCC4=CC(=O)C([75Se][75Se]C5=C[C@@]6(C)C(=CC5=O)CC[C@@H]5[C@@H]6[C@@H](O)C[C@@]6(C)[C@H]5CC[C@]6(O)C(=O)COC(C)=O)=C[C@]4(C)[C@H]3[C@@H](O)C[C@@]21C` [bis-2,2'-(21-acetoxy-1-dehydrocortisol)-diselenide-Se 75], the “Counts - Rkgd in 300 sec” value was 34672 and 33573 in experiment [5] (cortisol standard 0 μg/100 ml); 31116 and 32296 in experiment [5] (cortisol standard 2 μg/100 ml); 31129 and 31389 in experiment [5] (cortisol standard 4 μg/100 ml); 29987 and 30954 in experiment [5] (cortisol standard 8 μg/100 ml); 29141 and 29356 in experiment [5] (cortisol standard 16 μg/100 ml); 26842 and 25739 in experiment [5] (cortisol standard 32 μg/100 ml). The “Counts - Rkgd in 300 sec” value in experiment [5] (cortisol standard 64 μg/100 ml) was 23746 and 25895. Also, the “Counts per 100 seconds (corrected for background)” value in experiment [6] (cortisol standard 2 μg/100 ml, storage time 1 day) was 12814 and 13112; in experiment [6] (cortisol standard 2 μg/100 ml, storage time 28 days), 13007 and 12356; in experiment [6] (cortisol standard 4 μg/100 ml, storage time 1 day), 13012; in experiment [6] (cortisol standard 4 μg/100 ml, storage time 28 days), 11884; in experiment [6] (cortisol standard 8 μg/100 ml, storage time 1 day), 12754 and 12709; in experiment [6] (cortisol standard 8 μg/100 ml, storage time 28 days), 11486 and 11624. Moreover, the “Counts per 100 seconds (corrected for background)” value in experiment [6] (cortisol standard 16 μg/100 ml, storage time 1 day) is 11980 and 11825; in experiment [6] (cortisol standard 16 μg/100 ml, storage time 28 days), 10930 and 10467; in experiment [6] (cortisol standard 32 μg/100 ml, storage time 1 day), 10988 and 10876; in experiment [6] (cortisol standard 32 μg/100 ml, storage time 28 days), 10078 and 10365; in experiment [6] (cortisol standard 64 μg/100 ml, storage time 1 day), 9636; in experiment [6] (cortisol standard 64 μg/100 ml, storage time 28 days) it was 9967.
